Assay results published in patent US8664220B2, “Polycyclic compounds as lysophosphatidic acid receptor antagonists” (Amira Pharmaceuticals, Inc., priority 2009, dated 2014).
Values belong to the compound of their own block, whether it stands above or below them.

Legend:
human LPA1 = molecular target: T1, human LPA1 (Homo sapiens, UniProt Q92633); assay: LPA1 calcium flux assay; format: cell-based; details: human LPA1 expressing CHO cells, stimulated with 10 nM LPA; read-out: HLPA1 Ca Flux IC50
T1 construct: the full-length cDNA for human LPA1 was obtained by PCR of the reverse transcription reaction; expressed in transfected cells
T1 sequence (Q92633 whole entry): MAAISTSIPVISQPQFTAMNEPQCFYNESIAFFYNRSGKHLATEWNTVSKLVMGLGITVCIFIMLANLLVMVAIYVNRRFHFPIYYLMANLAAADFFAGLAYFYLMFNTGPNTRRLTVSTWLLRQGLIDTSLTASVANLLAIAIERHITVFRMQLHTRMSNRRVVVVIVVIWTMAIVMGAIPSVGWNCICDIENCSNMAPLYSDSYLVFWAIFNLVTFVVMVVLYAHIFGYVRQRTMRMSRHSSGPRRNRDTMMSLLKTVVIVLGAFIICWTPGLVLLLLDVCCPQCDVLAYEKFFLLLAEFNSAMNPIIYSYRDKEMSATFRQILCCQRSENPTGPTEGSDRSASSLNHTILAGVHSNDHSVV
Summary of the method: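 CHO cells stably expressing human LPA1, serum-starved overnight and loaded with Calcium 4 dye in HBSS/20 mM Hepes/0.3% fatty-acid-free HSA, 1 h at 37 °C. Compounds pre-incubated 30 min at room temperature, then 10 nM LPA added; intracellular Ca2+ flux measured and IC50 from titration curves.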

[1] = system: A2058 human melanoma cells; assay: LPA1 chemotaxis assay; format: cell-based; details: LPA 100 nM, read-out: IC50, inhibition of LPA-driven chemotaxis
Experimental: Chemotaxis of the A2058 human melanoma cells was measured using the Neuroprobe ChemoTx® System plates (8 μm pore size, 5.7 mm diameter sites). The filter sites were coated with 0.001% fibronectin (Sigma) in 20 mM Hepes, pH 7.4 and allowed to dry. A2058 cells were serum-starved for 24 hours, then harvested with Cell Stripper and resuspended in DMEM containing 0.1% fatty-acid-free bovine serum albumin (BSA) to a concentration of 1×10^6/ml. Cells were mixed with an equal volume of test compound (2×) in DMEM containing 0.1% fatty-acid-free BSA and incubated at 37° C. for 15 minutes. LPA (100 nM in DMEM containing 0.1% fatty-acid-free BSA) or vehicle was added to each well of the lower chamber and 50 μl of the cell suspension/test compound mix was applied to the upper portion of the ChemoTx plate. Plates were incubated at 37° C. for three hours and then the cells removed from the upper portion by rinsing with PBS and scraping. The filter was dried then stained with HEMA 3 Staining System (Fisher Scientific). The absorbance of the filter was read at 590 nm and IC50s were determined using Symyx Assay Explorer.

[2] = system: bleomycin-induced lung fibrosis; assay: Bleomycin-induced lung fibrosis model in mice; format: in vivo, mouse; details: acute setting (3 day)
From the text: Bleomycin-induced Lung Fibrosis Model in Mice Female CD-1 mice (Harlan, 25-30 g) are housed 4 per cage, given free access to food and water and allowed to acclimate for at least 7 days prior to test initiation. After the habituation phase, mice are lightly anesthetized with isoflurane (5% in 100% O2) and administered with bleomycin sulfate (0.01-5 U/kg, Henry Schein) via intratracheal instillation (Cuzzocrea S et al. Am J Physiol Lung Cell Mol Physiol. 2007 May; 292(5):[…]-104. Epub 2007 Jan. 12.). Mice are returned to their cages and monitored daily for the duration of the experiment. Test compound or vehicle is delivered po, ip or sc daily. The route and frequency of dosing is based on previously determined pharmacokinetic properties. […] BALF is analyzed for concentrations of inflammatory, pro-fibrotic and tissue injury biomarkers including transforming growth factor β1, hyaluronic acid, tissue inhibitor of metalloproteinase-1, matrix matelloproteinase-7, connective tissue growth factor and lactate dehydrogenase activity, using commercially available ELISA. […] Total cell counts are then obtained using a Hemavet hematology system (Drew Scientific, Wayne, Pa.) and differential cells counts are determined using Shandon cytospin (Thermo Scientific, Waltham, Mass.). […] The data are plotted using Graphpad prism and statistical differences between groups determined.

[3] = system: human foetal lung fibroblasts; details: cited from earlier work
[4] = system: mouse epithelial renal cell line, MCT; details: co-treatment with LPA, MCT cells; cited from earlier work
[5] = system: pancreatic cancer cell lines; details: cited from earlier work
[6] = system: renal fibrosis, unilateral ureteral obstruction (UUO); details: UUO mice; cited from earlier work
nerve-injured mice = details: pretreatment; cited from earlier work

IC50 (human LPA1): < 300 nM
IC50 [1]: < 100 nM
Structure (SMILES): Cc1noc(-c2ccc(-c3ccc(C4(C(=O)O)CC4)cc3)cc2)c1C(O)c1cn(Cc2ccccc2)nn1 (centres unmarked) [Compound 1-25, 1-(4′-{4-[(1-Benzyl-1H-[1,2,3]triazol-4-yl)-hydroxy-methyl]-3-methyl-isoxazol-5-yl}-biphenyl-4-yl)-cyclopropanecarboxylic acid]

IC50 (human LPA1): < 300 nM
IC50 [1]: < 100 nM
Structure (SMILES): Cc1noc(-c2ccc(-c3ccc(C4(C(=O)O)CC4)cc3)cc2)c1C(O)c1cn(Cc2ccccc2)nn1 (single isomer, unassigned) [Compound 1-41, 1-(4′-{4-[(1-Benzyl-1H-[1,2,3]triazol-4-yl)-hydroxy-methyl]-3-methyl-isoxazol-5-yl}-biphenyl-4-yl)-cyclopropanecarboxylic acid]
collagen concentration in broncheoalveolar lavage fluid (BALF) [2]: significantly reduced
total protein concentration in broncheoalveolar lavage fluid (BALF) [2]: significantly reduced

IC50 (human LPA1): < 300 nM
Structure (SMILES): Cc1ccccc1Cn1cc(C(O)c2c(C)noc2-c2ccc(-c3ccc(C4(C(=O)O)CC4)cc3)cc2)nn1 (centres unmarked) [Compound 1-70, 1-[4′-(4-{Hydroxy-[1-(2-methyl-benzyl)-1H-[1,2,3]triazol-4-yl]-methyl}-3-methyl-isoxazol-5-yl)-biphenyl-4-yl]-cyclopropanecarboxylic acid]

Further lines, the compound ahead of its results:

Structure (SMILES): Cc1noc(-c2ccc(CSCCC(=O)O)cc2)c1NC(=O)OC(C)c1ccccc1Cl (centres unmarked) [Ki16425]
chemotaxis of human foetal lung fibroblasts induced by BAL from IPF patients [3]: blocked
LPA-induced increase in expression of the profibrotic cytokine CTGF [4]: almost completely suppressed
LPA-induced and ascites-induced invasion activity ([5]; highly peritoneal metastatic pancreatic cancer cell line): blocked
in vitro migration in response to LPA and peritoneal fluid (ascites) from pancreatic cancer patients ([5]; pancreatic cancer cell lines): effectively blocked
development of renal fibrosis [6]: closely resembled the LPA1 (−/−) mice

Structure (SMILES): C[C@@H](N)[C@H]1CC[C@H](C(=O)Nc2ccncc2)CC1 [Compound Y-27632]
allodynia and hyperalgesia (nerve-injured mice): completely abolished

Structure (SMILES): Cc1noc(-c2ccc(-c3ccc(C4(C(=O)O)CC4)cc3)cc2)c1Cn1ccc(-c2ccccc2)n1 [Compound 1-5, 1-{4′-[3-Methyl-4-(3-phenyl-pyrazol-1-ylmethyl)-isoxazol-5-yl]-biphenyl-4-yl}-cyclopropanecarboxylic acid]
IC50 (human LPA1): < 300 nM
